Like-named read-outs stand apart in the source and are kept apart here.
What was measured:
hCB1 [1] = target: T1, hCB1 (Homo sapiens, UniProt P21554); assay: functional fluorescent CB1 activated Gαq16-coupled intracellular calcium mobilization assay in CHO-K1 cells; assay type: cell-based; set-up: expressed in transfected cells; host or cells: CHO-K1 (membranes); conditions: average of 3-6 measurements, read-out: Apparent antagonist dissociation constant (Ke) at hCB1
MDCK = MDCK BBB Assay; assay type: in vitro ADME; conditions: for % Permeable: MDCK BBB assay; for MDCK BBB Assay (Basolateral/Apical Peak Area Ratio) Mean: MDCK cells
hCB2 = hCB2 (Homo sapiens, UniProt P34972); assay: radioligand displacement binding at CB2 ([3H]CP55940, membranes of CHO-K1 cells over-expressing receptor)
Protocol: (§1) All compounds were characterized by H^1 NMR and evaluated using a calcium mobilization assay. […] Further characterization of select compounds was performed using radioligand displacement of [3H]1 and equilibrium dissociation constant (Ki) values were determined.

hCB1 [2] = target: T1, hCB1; assay: radioligand displacement binding at CB1 (membranes of CHO-K1 cells over-expressing receptor); conditions: for CB2 Ki/CB1 Ki selectivity ratio: CB1 versus CB2
Protocol: as §1

[3] = read-out: Binding affinity (Ki) at hCB2, displacement of [3H]CP55940, CHO-K1 membranes, average of 3-6 measurements
[4] = read-out: Binding affinity (Ki) at hCB1, radioligand displacement, CHO-K1 membranes, average of 3-6 measurements

T1 sequence (P21554 whole entry): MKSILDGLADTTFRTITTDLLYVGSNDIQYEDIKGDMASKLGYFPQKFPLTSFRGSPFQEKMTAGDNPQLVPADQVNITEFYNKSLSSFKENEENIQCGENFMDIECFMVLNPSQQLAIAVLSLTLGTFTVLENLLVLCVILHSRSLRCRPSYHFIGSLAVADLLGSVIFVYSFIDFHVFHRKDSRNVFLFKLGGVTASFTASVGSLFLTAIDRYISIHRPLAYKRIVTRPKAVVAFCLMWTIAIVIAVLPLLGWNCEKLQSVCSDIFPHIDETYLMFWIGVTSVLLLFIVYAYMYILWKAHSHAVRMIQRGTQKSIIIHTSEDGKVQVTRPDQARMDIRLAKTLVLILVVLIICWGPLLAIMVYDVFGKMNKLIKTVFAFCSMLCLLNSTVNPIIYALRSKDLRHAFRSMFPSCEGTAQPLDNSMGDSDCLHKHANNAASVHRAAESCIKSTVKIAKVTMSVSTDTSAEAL
Chain of hCB2 (P34972 whole entry): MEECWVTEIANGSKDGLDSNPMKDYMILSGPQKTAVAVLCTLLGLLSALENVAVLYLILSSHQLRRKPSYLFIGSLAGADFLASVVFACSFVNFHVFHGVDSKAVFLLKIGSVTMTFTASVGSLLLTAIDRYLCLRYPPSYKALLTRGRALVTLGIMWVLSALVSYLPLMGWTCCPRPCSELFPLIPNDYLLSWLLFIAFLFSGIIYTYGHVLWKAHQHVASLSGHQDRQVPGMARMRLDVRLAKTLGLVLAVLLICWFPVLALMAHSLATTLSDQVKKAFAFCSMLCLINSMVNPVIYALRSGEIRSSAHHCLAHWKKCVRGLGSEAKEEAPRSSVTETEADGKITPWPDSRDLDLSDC

| Kb (hCB1 [1]) [nM] | % Permeable (MDCK) [%] | MDCK BBB Assay (Basolateral/Apical Peak Area Ratio) Mean (MDCK) | Ki (hCB1 [2]) [nM] | Ki (hCB2) [nM] | CB2 Ki/CB1 Ki selectivity ratio (hCB1 [2]) | Compound | further results |
| --- | --- | --- | --- | --- | --- | --- | --- |
| 0.1 | – | – | – | – | – | O=S(=O)(NC1CCN(c2ncnc3c2nc(-c2ccccc2Cl)n3-c2ccc(Cl)cc2)CC1)c1ccccc1F [Compound 1, N-{1-[8-(2-Chlorophenyl)-9-(4-chlorophenyl)-9H-purin-6-yl]piperidin-4-yl}-2-fluorobenzene-1-sulfonamide] | melting point: 185 to 187 °C |
| 11.6 | 8 | 0.082 | 4.7 | – | – | Clc1ccc(-n2c(-c3ccccc3Cl)nc3c(N4CCN(c5ccc(OCc6ccccc6)cc5)CC4)ncnc32)cc1 [Compound 65, 6-{4-[4-(Benzyloxy)phenyl]piperazin-1-yl}-8-(2-chlorophenyl)-9-(4-chlorophenyl)-9H-purine] | Binding affinity (Ki) at hCB2 (hCB2; displacement of [3H]CP55940, CHO-K1 membranes, average of 3-6 measurements): inactive |
| 42.2 | 38 | 0.379 | 12.1 | 620 | 51 | CCCCC(=O)NC1CCN(c2ncnc3c2nc(-c2ccncc2C)n3-c2ccc(Cl)cc2)CC1 [Compound 90, N-{1-[9-(4-chlorophenyl)-8-(3-methylpyridin-4-yl)-9H-purin-6-yl]piperidin-4-yl}pentanamide] | – |
| 1.4 | 0 | 0 | – | – | – | Clc1ccc(-n2c(-c3ccccc3Cl)nc3c(N4CCC(Nc5ccccc5)CC4)ncnc32)cc1 [Compound 31, 1-[8-(2-chlorophenyl)-9-(4-chlorophenyl)-9H-purin-6-yl]-N-phenylpiperidin-4-amine] | – |
| 8 | – | – | 39 | 790 | 30 | O=C(Nc1ccccc1)N1CCN(c2ncnc3c2nc(-c2ccccc2Cl)n3-c2ccc(C(F)(F)F)nc2)CC1 [Compound 45] | – |
| 140 | – | – | – | – | – | Cn1cc(-n2c(-c3ccccc3Cl)nc3c(N4CCC(NS(=O)(=O)c5ccc(F)c(F)c5)CC4)ncnc32)cn1 [Compound 12, N-{1-[8-(2-Chlorophenyl)-9-(1-methyl-1H-pyrazol-4-yl)-9H-purin-6-yl]piperidin-4-yl}-3,4-difluorobenzene-1-sulfonamide] | melting point: 162 to 164 °C |
| 11.3 | 1 | 0.005 | 4.8 | 484 | 101 | N#Cc1ccc(N2CCN(c3ncnc4c3nc(-c3ccccc3Cl)n4-c3ccc(Cl)cc3)CC2)nc1 [Compound 3, 6-{4-[8-(2-Chlorophenyl)-9-(4-chlorophenyl)-9H-purin-6-yl]piperazin-1-yl}pyridine-3-carbonitrile] | – |
| 106 | – | – | – | 4100 | 98 | CN(Cc1ccccc1)C1CCN(c2ncnc3c2nc(-c2ccccc2Cl)n3-c2ccc(Cl)cc2)CC1 [Compound 39, N-benzyl-1-[8-(2-chlorophenyl)-9-(4-chlorophenyl)-9H-purin-6-yl]-N-methylpiperidin-4-amine] | Ki (hCB1 [2]; [4]): 42 nM |
| 110 | – | – | – | – | – | Cc1noc(C)c1-c1nc2c(N3CCN(Cc4ccccc4Cl)CC3)ncnc2n1-c1ccc(Cl)cc1 [Compound 53, 6-[4-(2-chlorobenzyl)piperazin-1-yl]-9-(4-chlorophenyl)-8-(3,5-dimethylisoxazol-4-yl)-9H-purine] | – |
| 12 | – | – | – | – | – | Clc1ccc(-n2c(-c3ccccc3Cl)nc3c(N4CCC(c5nc6ccccc6[nH]5)CC4)ncnc32)cc1 [Compound 30, 6-[4-(1H-benzimidazol-2-yl)piperidin-1-yl]-8-(2-chlorophenyl)-9-(4-chlorophenyl)-9H-purine] | Ki (hCB1 [2]; [4]): 47 nM |
| 140 | – | – | – | – | – | FC(F)(F)c1ccc(-n2c(-c3ccccc3Cl)nc3c(N4CCN(Cc5ccccc5Cl)CC4)ncnc32)cn1 [Compound 47, 8-(2-Chlorophenyl)-6-{4-[(2-chlorophenyl)methyl]piperazin-1-yl}-9-[6-(trifluoromethyl)pyridin-3-yl]-9H-purine] | melting point: 189 to 190 °C |
| 185 | – | – | – | – | – | CN(Cc1ccc(F)cc1)C1CCN(c2ncnc3c2nc(-c2ccccc2Cl)n3-c2ccc(Cl)cc2)CC1 [Compound 41, 1-[8-(2-chlorophenyl)-9-(4-chlorophenyl)-9H-purin-6-yl]-N-(4-fluorobenzyl)-N-methylpiperidin-4-amine] | – |
| 54 | 0 | 0.001 | 2 | 4600 | 2300 | Clc1ccc(-n2c(-c3ccccc3Cl)nc3c(N4CCC(Nc5ccccn5)CC4)ncnc32)cc1 [Compound 32, N-{1-[8-(2-chlorophenyl)-9-(4-chlorophenyl)-9H-purin-6-yl]piperidin-4-yl}pyridin-2-amine] | – |
| 320 | – | – | – | – | – | Cc1cc(-n2c(-c3ccccc3Cl)nc3c(N4CCN(Cc5ccccc5Cl)CC4)ncnc32)no1 [Compound 49, 8-(2-chlorophenyl)-6-{4-[(2-chlorophenyl)methyl]piperazin-1-yl}-9-(5-methyl-1,2-oxazol-3-yl)-9H-purine] | melting point: 79 to 81 °C |
| 380 | – | – | – | – | – | Cn1ccc(-n2c(-c3ccccc3Cl)nc3c(N4CCN(Cc5ccccc5Cl)CC4)ncnc32)n1 [Compound 51, 8-(2-Chlorophenyl)-6-{4-[(2-chlorophenyl)methyl]piperazin-1-yl}-9-(1-methyl-1H-pyrazol-3-yl)-9H-purine] | melting point: 150 to 152 °C |
| 18.5 | 0 | 0.000 | 17.9 | 830 | 46 | CCCCC(=O)NC1(c2ccccc2)CCN(c2ncnc3c2nc(-c2ccncc2Cl)n3-c2ccc(Cl)cc2)CC1 [Compound 93, N-{1-[9-(4-chlorophenyl)-8-(3-chloropyridin-4-yl)-9H-purin-6-yl]-4-phenylpiperidin-4-yl}pentanamide] | – |

Further lines, the compound ahead of its results:

| Compound | Kb (hCB1 [1]) [nM] | % Permeable (MDCK) [%] | MDCK BBB Assay (Basolateral/Apical Peak Area Ratio) Mean (MDCK) | Ki (hCB1 [2]) [nM] | Ki (hCB2) [nM] | CB2 Ki/CB1 Ki selectivity ratio (hCB1 [2]) | further results |
| --- | --- | --- | --- | --- | --- | --- | --- |
| CCCCS(=O)(=O)N1CCN(c2ncnc3c2nc(-c2ccccc2Cl)n3-c2ccc(Cl)cc2)CC1 [Compound 81, 8-(2-Chlorophenyl)-9-(4-chlorophenyl)-6-[4-(butylsulfonyl)piperazin-1-yl]-9H-purine] | 0.4 | 5 | 0.053 | – | – | 871 | Ki (hCB2; [3]): 505 nM; Ki (hCB1 [2]; [4]): 0.6 nM |
| NC(=O)c1ccc(-n2c(-c3ccccc3Cl)nc3c(N4CCN(Cc5ccccc5Cl)CC4)ncnc32)cc1 [Compound 48, 4-[8-(2-chlorophenyl)-6-{4-[(2-chlorophenyl)methyl]piperazin-1-yl}-9H-purin-9-yl]benzamide] | 440 | – | – | – | – | – | melting point: 120 to 122 °C |
| Fc1ccc(CNC2CCN(c3ncnc4c3nc(-c3ccccc3Cl)n4-c3ccc(Cl)cc3)CC2)cc1 [Compound 40, 1-[8-(2-chlorophenyl)-9-(4-chlorophenyl)-9H-purin-6-yl]-N-(4-fluorobenzyl)piperidin-4-amine] | 82 | – | – | – | – | – | – |
| Clc1ccc(-n2c(-c3sccc3Cl)nc3c(N4CCN(Cc5ccccc5Cl)CC4)ncnc32)cc1 [Compound 52, 6-[4-(2-chlorobenzyl)piperazin-1-yl]-9-(4-chlorophenyl)-8-(3-chlorothiophen-2-yl)-9H-purine] | 220 | – | – | – | – | – | – |
| CC(C)S(=O)(=O)N1CCN(c2ncnc3c2nc(-c2ccccc2Cl)n3-c2ccc(Cl)cc2)CC1 [Compound 80, 8-(2-Chlorophenyl)-9-(4-chlorophenyl)-6-{4-[(1-methylethyl)sulfonyl]piperazin-1-yl}-9H-purine] | 1.5 | 0 | 0.000 | – | – | – | Ki (hCB2; [3]): 978 nM; Ki (hCB1 [2]; [4]): 1.4 nM |
| CC(C)CS(=O)(=O)N1CCN(c2ncnc3c2nc(-c2ccccc2Cl)n3-c2ccc(Cl)cc2)CC1 [Compound 82, 8-(2-Chlorophenyl)-9-(4-chlorophenyl)-6-{4-[(2-methylpropyl)sulfonyl]piperazin-1-yl}-9H-purine] | 0.2 | 0 | – | – | 2840 | – | Ki (hCB1 [2]; [4]): 2 nM |
| CCCCC(=O)NC1(c2ccccc2)CCN(c2ncnc3c2nc(-c2ccncc2)n3-c2ccc(Cl)cc2)CC1 [Compound 55, N-{1-[9-(4-chlorophenyl)-8-pyridin-4-yl-9H-purin-6-yl]-4-phenylpiperidin-4-yl}pentanamide] | 869 | – | – | 272 | 1570 | 5.8 | – |
| CCCCC(=O)NC1CCN(c2ncnc3c2nc(-c2ccncc2Cl)n3-c2ccc(Cl)cc2)CC1 [Compound 91, N-{1-[9-(4-chlorophenyl)-8-(3-chloropyridin-4-yl)-9H-purin-6-yl]piperidin-4-yl}pentanamide] | 27.8 | 41 | 0.409 | 9.2 | 1150 | 126 | – |
| O=S(=O)(NC1CCN(c2ncnc3c2nc(-c2ccccc2Cl)n3-c2ccc(Cl)cc2)CC1)c1ccc(F)cc1 [Compound 4, N-{1-[8-(2-Chlorophenyl)-9-(4-chlorophenyl)-9H-purin-6-yl]piperidin-4-yl}-4-fluorobenzene-1-sulfonamide] | 1.1 | 0 | 0.0006 | – | – | – | melting point: 196 to 197 °C |
| O/N=C(/c1ccc(F)cc1)C1CCN(c2ncnc3c2nc(-c2ccccc2Cl)n3-c2ccc(Cl)cc2)CC1 [Compound 29, (E)-{1-[8-(2-chlorophenyl)-9-(4-chlorophenyl)-9H-purin-6-yl]piperidin-4-yl}(4-fluorophenyl)methanone oxime] | 21 | – | – | 4 | – | – | – |
